# Test results from paper PMC11233931, “Remodeling tumor‐associated macrophage for anti‐cancer effects by rational design of irreversible inhibition of mitogen‐activated protein kinase‐activated protein kinase 2” (MedComm, 2024).
# Legend:
# [1] = tested on: p-Hsp27 (Ser82) and p-MK2 (T334) in THP-1 derived macrophages; experiment: Western blot of MK2 signaling in LPS-stimulated THP-1 derived macrophages; assay type: cell-based, human; settings: 1 h preincubation, LPS 100 ng/mL 30 min
# Method: FIGURE 4 Targeting cellular MK2 signaling with irreversible inhibition by compound 11. (A and B) RT‐PCR analysis of IL‐1β, TNF‐α, and IL‐6 expression in Lipopolysaccharides (LPS)‐stimulated THP‐1 (A) and RAW264.7 (B) Cells, with pre‐treatment of compound 11 for 3 h followed by LPS (3 h) stimulation. (C) The inhibitory effects of compound 11 on TNF‐α and IL‐6 production in LPS‐stimulated RAW264.7 macrophages for 24 h, measured by ELISA. (D and E) Compound 11, alongside CC‐99677 and PF‐3644022, suppressed MK2 pathway activation, validated through western blot analysis post‐LPS stimulation. Cells were preincubated with the specified compounds for 1 h prior to LPS stimulation (100 ng/mL, 30 min). (F) Distinguishes the mode of action between compound 11 and CC‐99677. The complex structure of a small molecule and MK2 (3R2Y) with the same parent nucleus as compound 11 is shown in cyans, and the complex structure of a small molecule and MK2 (3FYJ) with the same parent nucleus as CC‐99677 is shown in orange. (G–I) The effect of indicated inhibitor on Hsp27 phosphorylation following inhibitor washout. Cells were pretreated with indicated compounds for 1 h and then washed to remove free compound and incubated for a further indicated time before activation with LPS. In (A–C), LPS (100 ng/mL) served as the stimulation control, while untreated cells were the baseline control. The data represent as mean ± SD from triplicates, with statistical analysis conducted via one‐way analysis of variance (ANOVA) (^## p < 0.01, ^### p < 0.001 vs. stimulation control; ^***p < 0.001 vs. baseline control).
# Next, the efficacy of compound 11 in cellular MK2 signaling inhibition was evaluated by examining both p‐MK2 and p‐Hsp27 at Ser82 levels, the latter being a direct downstream substrate of p‐MK2. […] We try to explore this interesting phenomenon by superimposing the complex crystal structure (3FYJ) that harboring the same skeleton as CC‐99677 (Figure 4F). […] In that way, CC‐99677 binding to MK2 kinase after pre‐incubation with cells and after LPS stimulation may cause the difference in the spatial conformation of MK2 kinase domain, which may make p38 cannot properly bind to MK2, resulting in a decrease in the phosphorylation of MK2.
# After the treatment outlined in the figure legends, cells were lysed using 1× sodium dodecyl sulfate (SDS) solution. The lysates were then subjected to SDS‐polyacrylamide gel electrophoresis for separation, followed by transferring onto nitrocellulose membranes. […] Protein bands were detected using an enhanced chemiluminescence detection reagent (Thermo Fisher Scientific).
# [2] = tested on: MRC1 and ARG-1 mRNA in bone marrow-derived macrophages (BMDM); experiment: RT-PCR of M2 markers in IL-4/IL-13 stimulated BMDM; assay type: cell-based, mouse; settings: IL-4/IL-13 20 ng/mL
# Text: A previous study has reported that MK2 fostered M2‐like polarization of TAMs, driving a protumor and proangiogenic phenotype which in turn accelerates tumor progression.[21] We thus assessed the influence of compound 11 on macrophage polarization and function. Our experiments used human THP‐1 monocyte induced macrophages, mouse RAW264.7 macrophages, and mouse bone marrow‐derived macrophages (BMDM). These cells were induced into M2‐like macrophages using the classic IL‐4 and IL‐13 stimuli.
# FIGURE 5 Inhibition of pro‐tumorigenic M2‐like polarization in macrophages by compound 11. (A–C) RT‐PCR analysis highlights the impact of compound 11 on MRC1 and ARG‐1 mRNA expression in various macrophage cells treated with IL‐4/IL‐13 alone or combined with compound 11 for 12 h or 24 h. […] Data are shown as the mean ± SD. ^* p < 0.05; ^*** p < 0.001 versus the vehicle group, determined by unpaired t test. […]
# Total RNA was extracted from cultured cells using the EZ‐press RNA Purification Kit (EZBioscience). Complementary DNA was synthesized using the ABScript III RT Master Mix for qPCR with gDNA remover (ABclonal Technology) and was quantified with primers listed in Table S5. The relative mRNA expression levels were quantified through qPCR using the SYBR green gene expression assay (ABclonal Technology).
# [3] = Cytotoxicity assays, summary over all cell lines; assay type: cell-based; settings: range over three normal and six tumor cell lines
# Text: MK2, as a pivotal regulator of the well‐acknowledged p38 inflammation signaling pathway, is increasingly recognized for its critical role in the initiation and progression of cancer. Through an analysis of the clinical data from the TCGA database, we found the significant impact of MK2 on cancer. […] Moreover, macrophages are abundant in cancer, and such abundance correlates with poor prognosis in most malignancie.[17], [18], [19], [20] […] Additionally, the knockdown of MK2 using specific siRNA in macrophages also led to the downregulation of M2 markers. […] Moreover, compound 11’s effect on macrophages extended to inhibition of typical proinflammatory cytokines and crucial factors in inflammation‐driven tumorigenesis. […] These findings bolster the rationale for pursuing the development and application of MK2 inhibitors in the treatment of inflammation‐driven or macrophage‐rich cancers.
# Cells was plated into 96-well plates and incubated overnight prior to introduction of varying concentrations of compounds or control solvent. Following a 72-hour exposure period, cell viability was determined using a Cell Counting Kit-8 assay (Life-iLab, China). Dose-response curves were fitted using a four-parameter method facilitated by SoftMax Pro, which was subsequently used for the computation of IC50 values.
smiles,measurement,setting,value
C=CC(=O)Nc1cc(-c2cc(-c3cc4c([nH]3)CCNC4=O)ccn2)ccc1OC(F)(F)F [compound 11],effect on MK2 phosphorylation at T334 site,[1],did not inhibit
same,effect on phosphorylation of Hsp27 (Ser82),[1],significantly inhibited
same,effect on transcriptional level of MRC1 and ARG-1,[2],significantly suppressed
same,IC50 at 72 h,[3],30 to 50 µM
